The values below come from ChEMBL document CHEMBL1132134, “The LMC delta opioid recognition pharmacophore: comparison of SNC80 and oxymorphindole” (Bioorg Med Chem Lett, 1999).

Assay [1] addresses Opioid receptors; mu & delta (Rattus norvegicus) (UniProt P33533+P33535). Briefly: Selectivity ratio against mu opioid receptor to that of delta opioid receptor. The assay is classed as protein assay.
In assay [2] the target is Delta-type opioid receptor (Rattus norvegicus, UniProt P33533). Briefly: Binding affinity evaluated by inhibition of binding of [3H]DADLE to delta opioid receptor of rat brain.
Chain of Delta-type opioid receptor (P33533 whole entry): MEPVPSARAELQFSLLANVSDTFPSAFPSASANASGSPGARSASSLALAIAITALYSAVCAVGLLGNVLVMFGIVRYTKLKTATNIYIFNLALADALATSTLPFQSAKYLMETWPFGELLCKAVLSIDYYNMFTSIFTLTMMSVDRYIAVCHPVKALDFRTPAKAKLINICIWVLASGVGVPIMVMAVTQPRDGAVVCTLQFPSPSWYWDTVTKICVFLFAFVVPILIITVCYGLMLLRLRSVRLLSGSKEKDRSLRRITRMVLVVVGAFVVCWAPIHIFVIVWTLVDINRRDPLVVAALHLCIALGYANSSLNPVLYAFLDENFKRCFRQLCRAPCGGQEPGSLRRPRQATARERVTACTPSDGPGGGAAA

Chain of Opioid receptors; mu & delta (Rattus norvegicus) (P33533 whole entry, looked up): as the sequence (P33533 whole entry) above
Chain of Opioid receptors; mu & delta (Rattus norvegicus) (P33535 whole entry, looked up): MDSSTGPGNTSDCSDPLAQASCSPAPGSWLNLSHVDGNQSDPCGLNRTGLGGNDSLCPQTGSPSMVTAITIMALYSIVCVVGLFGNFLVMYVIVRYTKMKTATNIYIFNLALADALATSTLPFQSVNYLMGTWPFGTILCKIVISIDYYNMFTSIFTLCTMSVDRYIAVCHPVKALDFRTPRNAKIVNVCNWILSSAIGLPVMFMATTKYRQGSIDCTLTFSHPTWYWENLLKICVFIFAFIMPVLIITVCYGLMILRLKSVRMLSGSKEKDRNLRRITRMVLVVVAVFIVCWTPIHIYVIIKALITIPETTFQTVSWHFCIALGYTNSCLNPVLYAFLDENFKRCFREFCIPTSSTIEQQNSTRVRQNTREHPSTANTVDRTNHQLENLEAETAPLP

As to `O=C1/C(=C\c2cccc3ccccc23)C[C@@]2(O)C3Cc4ccc(O)c5c4C2(CCN3CC2CC2)C1O5` (stereo not given in full), the Selectivity in assay [1] is 15. Further, in assay [2], the Ki (in general, the equilibrium dissociation constant of an inhibitor or competing ligand from its target) is 0.7 nM.

As for `O=C1/C(=C/c2ccc(-c3ccccc3)cc2)C[C@@]2(O)C3Cc4ccc(O)c5c4C2(CCN3CC2CC2)C1O5` (stereo not given in full), the Selectivity in assay [1] came out at 0.6. In assay [2], this molecule yielded a Ki of 75 nM.

Turning to `O=C1/C(=C/c2ccccc2)C[C@@]2(O)[C@H]3Cc4ccc(O)c5c4[C@@]2(CCN3CC2CC2)[C@H]1O5` [BNTX], the Selectivity in assay [1] was 4. This molecule gave a Ki in assay [2] of 6.2 nM.

As for `O=C1/C(=C\c2ccc3ccccc3c2)C[C@@]2(O)C3Cc4ccc(O)c5c4C2(CCN3CC2CC2)C1O5` (stereo not given in full), the Selectivity in assay [1] was 3. In addition, the Ki in assay [2] worked out at 16 nM.

`O=C1/C(=C\c2ccccc2)C[C@@]2(O)[C@H]3Cc4ccc(O)c5c4[C@@]2(CCN3CC2CC2)[C@H]1O5`: the Selectivity in assay [1] stood at 8.6. The Ki in assay [2] was found to be 3.7 nM.

`O=C1/C(=C\c2ccc(-c3ccccc3)cc2)C[C@@]2(O)C3Cc4ccc(O)c5c4C2(CCN3CC2CC2)C1O5` (stereo not given in full): the Selectivity in assay [1] turned out to be 4.2. The Ki in assay [2] was 47 nM.

With `O=C1/C(=C/c2cccc3ccccc23)C[C@@]2(O)C3Cc4ccc(O)c5c4C2(CCN3CC2CC2)C1O5` (stereo not given in full), the Selectivity in assay [1] came to 7.5. This molecule came in with a Ki in assay [2] of 4.6 nM.

Regarding `O=C1/C(=C/c2ccc3ccccc3c2)C[C@@]2(O)C3Cc4ccc(O)c5c4C2(CCN3CC2CC2)C1O5` (stereo not given in full), the Selectivity in assay [1] came out at 0.6. This molecule also showed a Ki in assay [2] of 39 nM.

As to `O=C1/C(=C\c2c3ccccc3cc3ccccc23)C[C@@]2(O)C3Cc4ccc(O)c5c4C2(CCN3CC2CC2)C1O5` (stereo not given in full), in assay [1], the Selectivity stood at 14. Moreover, in assay [2], the affinity, expressed as Ki, was 2.4 nM.

In the case of `O=C1/C(=C/c2c3ccccc3cc3ccccc23)C[C@@]2(O)C3Cc4ccc(O)c5c4C2(CCN3CC2CC2)C1O5` (stereo not given in full), the Selectivity in assay [1] stood at 6.4. In addition, the Ki in assay [2] was found to be 17 nM.
